Values joined by “and” are separate entries in the source; they are usually repeats but may differ in a detail not shown here. Identical values can stand only once.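 Where inhibition never reached the appropriate level, the endpoint shown equals the highest concentration tested. Otherwise, values were interpolated linearly from a five-concentration, 48-hour dose response in 96-well plates. Abbreviation: GI50, concentration required for 50% inhibition of growth.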 Active and inactive are the calls of the source. Cut-off read from the data, not from the text of the source: active = GI50 up to about 1.1 µM and inactive = higher.
How the values were obtained:
Experiment in all cases: growth of human tumour cells (NCI), 48 h
[1] = test system: OVCAR-3
[2] = test system: SF-268
[3] = test system: SN12C
[4] = test system: 786-0
[5] = test system: OVCAR-8
[6] = test system: MDA-N
[7] = test system: SK-MEL-5
[8] = test system: UO-31
[9] = test system: ACHN
[10] = test system: SK-MEL-28
[11] = test system: PC-3
[12] = test system: RXF 393
[13] = test system: SW-620
[14] = test system: IGROV-1
[15] = test system: HT-29
[16] = test system: SR
[17] = test system: Hs-578T
[18] = test system: NCI-H460
[19] = test system: NCI-H522

Compound | GI50 [1] | GI50 [2] | GI50 [3] | GI50 [4] | GI50 [5] | GI50 [6] | GI50 [7] | GI50 [8] | GI50 [9] | GI50 [10] | GI50 [11] | GI50 [12] | GI50 [13] | GI50 [14] | GI50 [15] | GI50 [16] | GI50 [17] | GI50 [18] | GI50 [19]
S=C(c1c[nH]c2ccccc12)N1CCOCC1 | > 100 µM (inactive) | 14.1 µM (inactive) | > 100 µM (inactive) | > 100 µM (inactive) | > 100 µM (inactive) | > 100 µM (inactive) | > 100 µM (inactive) | 45.8 µM (inactive) | > 100 µM (inactive) | > 100 µM (inactive) | > 100 µM (inactive) | > 100 µM (inactive) | > 100 µM (inactive) | 36.3 µM (inactive) | > 100 µM (inactive) | > 100 µM (inactive) | 22.3 µM (inactive) | > 100 µM (inactive) | –
CC(=O)OC1OC(C2c3cccc(O)c3C(=O)c3c(O)cc(CO)cc32)C(O)C(O)C1O (stereo unspecified) | – | 4.97 µM (inactive) and 5.77 µM (inactive) | 7.11 µM (inactive) and 5.35 µM (inactive) | 4.18 µM (inactive) and 4.13 µM (inactive) | 4.31 µM (inactive) and 3.61 µM (inactive) | 3.74 µM (inactive) and 3.13 µM (inactive) | 1.53 µM (inactive) and 1.68 µM (inactive) | 6.46 µM (inactive) and 7.96 µM (inactive) | – | 2.92 µM (inactive) | 3.01 µM (inactive) and 2.32 µM (inactive) | 9.4 µM (inactive) and 6.84 µM (inactive) | 3.66 µM (inactive) and 3.03 µM (inactive) | 4.14 µM (inactive) and 3.87 µM (inactive) | 3.74 µM (inactive) and 3.92 µM (inactive) | 2.67 µM (inactive) and 1.93 µM (inactive) | 2.31 µM (inactive) and 2.22 µM (inactive) | 3.43 µM (inactive) and 3.48 µM (inactive) | 4.51 µM (inactive) and 2.91 µM (inactive)
O=C1N2CCc3c([nH]c4ccccc34)C23CC2CCCC12S3 (stereo unspecified) | 39.4 µM (inactive) | 36.1 µM (inactive) | 20.6 µM (inactive) | 33.7 µM (inactive) | 28.8 µM (inactive) | 27.9 µM (inactive) | 20.3 µM (inactive) | 32 µM (inactive) | 37.3 µM (inactive) | 45.3 µM (inactive) | 24.7 µM (inactive) | > 50 µM (inactive) | > 50 µM (inactive) | 24.8 µM (inactive) | 18.4 µM (inactive) | 28.9 µM (inactive) | 22 µM (inactive) | – | > 50 µM (inactive)
O=C1c2ccccc2C(=O)c2c(NCC(O)CO)ccc(NCC(O)CO)c21 (stereo unspecified) | 79.6 µM (inactive) | 89.1 µM (inactive) | 71.3 µM (inactive) | 69.7 µM (inactive) | 69.2 µM (inactive) | 61.2 µM (inactive) | 33.7 µM (inactive) | 17.8 µM (inactive) | 40.5 µM (inactive) | > 100 µM (inactive) | 78 µM (inactive) | – | 45.9 µM (inactive) | 49.4 µM (inactive) | 56.6 µM (inactive) | 61.4 µM (inactive) | 68.7 µM (inactive) | 61 µM (inactive) | 67.3 µM (inactive)
c1ccc(C2=NOC(c3ccccc3)N2C23CC4CC(CC(C4)C2)C3)cc1 (stereo unspecified) | > 10 µM (inactive) | > 10 µM (inactive) | > 10 µM (inactive) | > 10 µM (inactive) | > 10 µM (inactive) | > 10 µM (inactive) | > 10 µM (inactive) | – | > 10 µM (inactive) | > 10 µM (inactive) | > 10 µM (inactive) | > 10 µM (inactive) | > 10 µM (inactive) | > 10 µM (inactive) | > 10 µM (inactive) | 0.785 µM (active) | > 10 µM (inactive) | > 10 µM (inactive) | > 10 µM (inactive)
Clc1ccc(-c2cc(-c3nc4ccccc4[nH]3)no2)cc1 | 18.5 µM (inactive) | 21.3 µM (inactive) | 18.6 µM (inactive) | 24.3 µM (inactive) | 33.8 µM (inactive) | 17.5 µM (inactive) | 17.7 µM (inactive) | 19 µM (inactive) | 17.4 µM (inactive) | 19.3 µM (inactive) | 23.3 µM (inactive) | – | 22.4 µM (inactive) | 22.6 µM (inactive) | 18.2 µM (inactive) | 21.4 µM (inactive) | 29.6 µM (inactive) | 16.9 µM (inactive) | 19.2 µM (inactive)
CC(=O)N(CCc1ccccc1)C(C#N)c1ccccc1 (stereo unspecified) | 70.1 µM (inactive) | > 100 µM (inactive) | > 100 µM (inactive) | > 100 µM (inactive) | > 100 µM (inactive) | > 100 µM (inactive) | > 100 µM (inactive) | > 100 µM (inactive) | > 100 µM (inactive) | – | > 100 µM (inactive) | > 100 µM (inactive) | > 100 µM (inactive) | > 100 µM (inactive) | > 100 µM (inactive) | > 100 µM (inactive) | > 100 µM (inactive) | – | > 100 µM (inactive)
CC(C)OP(=O)(OC(C)C)C(C(F)(F)F)C(F)(F)F | > 100 µM (inactive) | > 100 µM (inactive) | > 100 µM (inactive) | > 100 µM (inactive) | > 100 µM (inactive) | > 100 µM (inactive) | > 100 µM (inactive) | > 100 µM (inactive) | > 100 µM (inactive) | > 100 µM (inactive) | > 100 µM (inactive) | > 100 µM (inactive) | > 100 µM (inactive) | > 100 µM (inactive) | > 100 µM (inactive) | > 100 µM (inactive) | > 100 µM (inactive) | – | > 100 µM (inactive)
Cc1cc(N(CCC#N)CCC#N)ccc1C(/N=N/c1ccc([N+](=O)[O-])cc1)=N\NC(=O)c1ccccc1 | 46.1 µM (inactive) | 32.3 µM (inactive) | 43.3 µM (inactive) | 47.9 µM (inactive) | 56.5 µM (inactive) | 6.25 µM (inactive) | 26.4 µM (inactive) | 34.4 µM (inactive) | 62.8 µM (inactive) | – | 41.2 µM (inactive) | 52.2 µM (inactive) | – | 47 µM (inactive) | 24.5 µM (inactive) | 14.2 µM (inactive) | 25.1 µM (inactive) | 37.2 µM (inactive) | 17 µM (inactive)
CCOC(=O)C(Cc1ccc2c(c1)CCC2)(Cc1ccc2c(c1)CCC2)C(=O)OCC | 26.1 µM (inactive) | 56.9 µM (inactive) | – | 94.2 µM (inactive) | > 100 µM (inactive) | 46 µM (inactive) | 33.8 µM (inactive) | 71.9 µM (inactive) | > 100 µM (inactive) | 51.5 µM (inactive) | 32.5 µM (inactive) | 23.4 µM (inactive) | > 100 µM (inactive) | > 100 µM (inactive) | 30.5 µM (inactive) | 19 µM (inactive) | > 100 µM (inactive) | 51.3 µM (inactive) | 29.9 µM (inactive)
O=C(/C=C/c1ccccc1)C[C@@H](O)C[C@@H]1CC=CC(=O)O1 | 3.75 µM (inactive) | 10.1 µM (inactive) | 12.5 µM (inactive) | 3.34 µM (inactive) | 3.32 µM (inactive) | 4.76 µM (inactive) | 12.4 µM (inactive) | 9.18 µM (inactive) | 12.7 µM (inactive) | 11.5 µM (inactive) | 16.3 µM (inactive) | – | 2.35 µM (inactive) | 6.85 µM (inactive) | 5.13 µM (inactive) | 2.84 µM (inactive) | > 33.4 µM (inactive) | 16.3 µM (inactive) | 2.64 µM (inactive)
CCOC(=O)C(=CNC(=S)c1ccncc1)C(=O)OCC | 76.2 µM (inactive) | > 100 µM (inactive) | > 100 µM (inactive) | > 100 µM (inactive) | – | > 100 µM (inactive) | > 100 µM (inactive) | > 100 µM (inactive) | > 100 µM (inactive) | > 100 µM (inactive) | > 100 µM (inactive) | > 100 µM (inactive) | > 100 µM (inactive) | > 100 µM (inactive) | – | > 100 µM (inactive) | > 100 µM (inactive) | > 100 µM (inactive) | > 100 µM (inactive)
Cc1nc(Cl)c(Cl)c(Cl)n1 | 0.146 µM (active) | 1.92 µM (inactive) | 0.284 µM (active) | 0.409 µM (active) | 0.755 µM (active) | 1.6 µM (inactive) | 0.705 µM (active) | – | 0.324 µM (active) | 0.311 µM (active) | 0.348 µM (active) | 0.495 µM (active) | 0.0471 µM (active) | 0.173 µM (active) | 0.104 µM (active) | < 0.01 µM (active) | 0.48 µM (active) | 1.38 µM (inactive) | 1.79 µM (inactive)
CC1OC(OC2C(CO)OC(O[C@H]3CC[C@@]4(C)C(=CC[C@H]5[C@@H]6C[C@@H]7O[C@](O)(CC[C@@H](C)COC8OC(CO)C(O)C(O)C8O)[C@@H](C)[C@@H]7[C@@]6(C)CC[C@@H]54)C3)C(OC3OC(C)C(O)C(O)C3O)C2O)C(O)C(O)C1O (stereo partly specified) | 12.9 µM (inactive) | 3.23 µM (inactive) | 2.2 µM (inactive) | 2.07 µM (inactive) | 2.19 µM (inactive) | 2.89 µM (inactive) | 4.21 µM (inactive) | 2.82 µM (inactive) | 5.28 µM (inactive) | 2.46 µM (inactive) | 2.41 µM (inactive) | 2.4 µM (inactive) | 1.45 µM (inactive) | – | 1.98 µM (inactive) | 3.23 µM (inactive) | 33.1 µM (inactive) | 1.88 µM (inactive) | 2.07 µM (inactive)
C/C(=N\Nc1nc2ccccc2o1)c1ncccn1 | 0.0136 µM (active) | 0.32 µM (active) | < 0.0158 µM (active) | < 0.0252 µM (active) | < 0.01 µM (active) | 0.3 µM (active) | 0.0574 µM (active) | < 0.0313 µM (active) | < 0.0165 µM (active) | 0.0405 µM (active) | < 0.0273 µM (active) | – | < 0.01 µM (active) | 0.0184 µM (active) | < 0.01 µM (active) | < 0.02 µM (active) | 0.984 µM (active) | < 0.0234 µM (active) | < 0.01 µM (active)
